# Experimental data reported in patent publication US10030027B2, “Soluble guanylate cyclase stimulators” (MERCK SHARP & DOHME CORP., priority 2015, dated 2018).
# pEC50, pKi: −log10 of the molar value.
# Tests used:
# sGC α1/β1 heterodimer = sGC α1/β1 heterodimer (Homo sapiens (Human), UniProt Q02108+Q02153); test: Cell-based sGC functional assay (cyclic GMP assay for sGC activator: CASA assay); set-up: % Activation: concentration or dose not given beside the values; details: CHO-K1/sGC cells; for Emax: CHO-K1, activity expressed as percentage of compound A (standard), read-out: % Activation; for pEC50: inflection point, 4P fit, read-out: IP; for % Activation: activity expressed as percentage of compound A (standard)
# How it was run: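 CHO-K1 cells stably expressing human sGC α1/β1 were pre-incubated 30 min at 25° C with or without 1 μM DETA-NO, then exposed to compound for 1 hr at 37° C with 0.5 mM IBMX and 2.5% DMSO final. Intracellular cGMP was measured by HTRF, expressed as % of reference sGC-HDA maximum; inflection point and maximum fold induction came from 4-parameter fits.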
# [1] = molecular target: human recombinant sGC enzyme (Homo sapiens (Human), UniProt Q02108+Q02153); test: Size Exclusion Chromatography (SEC) competition binding assay using [3H] Ex-77B as the radioligand; details: [3H] Ex-77B radioligand, 24 hours at 37° C.
# Protocol: Binding Assay: The binding potencies of sGC compounds to the human recombinant sGC enzyme were determined in a Size Exclusion Chromatography (SEC) competition binding assay using [^3H] Ex-77B as the radioligand. [^3H] Ex-77B was prepared using a standardardized tritium exchange procedure. The parent (non-labeled) molecule was first iodinated then a Pd-catalyzed iodine to tritium exchange provided the labeled compound. […] Assays were conducted in 96-well plates in a total volume of 200 μL. […] Non-specific binding was defined by competition with 1 μM of Ex-77B. After the incubation period, the binding mixtures were loaded onto the gel-filtration plate (ThermoFischer Cat. No. 89808) pre-equilibrated with binding buffer and spun at 1000×g for 3 min at 4° C. on a Bench top centrifuge. The collected eluates in White Frame Clear Well Isoplates (Perkin Elmer Cat #6005040) received 100 μl of UltimaGold scintillation cocktail. The sealed plates were shaken vigorously and span, and counted after 6 hours with a Wallac Microbeta TriLux 1450 LSC & Luminescence Counter (Perkin Elmer). Data from competition experiments were analyzed to determine Ki values using one site fit Ki equation.
Structure (SMILES),Emax (sGC α1/β1 heterodimer) [%],pEC50 (sGC α1/β1 heterodimer),pKi [1],% Activation (sGC α1/β1 heterodimer) [%]
"CC(C)(Cc1csc([C@]2(C)C(=O)Nc3nc(-c4nn(CC5CCCCO5)c5cc(F)ccc45)nc(N)c32)n1)C(=O)O (single isomer, unassigned) [Example 133AA]",104,6.18,9.29,
"CC(C)(Cc1csc([C@]2(C)C(=O)Nc3nc(-c4nn(CC5CCCCO5)c5cc(F)ccc45)nc(N)c32)n1)C(=O)O (single isomer, unassigned) [Example 133AB]",,6.15,9.44,111.4
"CC(C)(Cc1coc(C2(C)C(=O)Nc3nc(-c4nn(CC5CCCCO5)c5cc(F)ccc45)nc(N)c32)n1)C(=O)O (single isomer, unassigned) [Example 134AA, 3-{2-[4-amino-2-{6-fluoro-1-[tetrahydro-2H-pyran-2-ylmethyl]-1H-indazol-3-yl}-5-methyl-6-oxo-6,7-dihydro-5H-pyrrolo[2,3-d]pyrimidin-5-yl]-1,3-oxazol-4-yl}-2,2-dimethylpropanoic acid]",104,6.09,9.49,
"CC(C)(Cn1cc(C2(C)C(=O)Nc3nc(-c4nn(Cc5ccccc5F)c5cc(Cl)ccc45)nc(N)c32)nn1)C(=O)O (single isomer, unassigned) [Example 140A, 3-(4-{4-Amino-2-[6-chloro-1-(2-fluorobenzyl)-1H-indazol-3-yl]-5-methyl-6-oxo-6,7-dihydro-5H-pyrrolo[2,3-d]pyrimidin-5-yl}-1H-1,2,3-triazol-1-yl)-2,2-dimethylpropanoic acid]",,6.10,9.64,
"CC1(c2nc(C[C@@H](N)C(=O)O)co2)C(=O)Nc2nc(-c3nn(Cc4ccccc4F)c4cc(Cl)ccc34)nc(N)c21 (single isomer, unassigned) [Example 172A, 3-(2-{4-amino-2-[6-chloro-1-(2-fluorobenzyl)-1H-indazol-3-yl]-5-methyl-6-oxo-6,7-dihydro-5H-pyrrolo[2,3-d]pyrimidin-5-yl}-1,3-oxazol-4-yl)-D-alanine]",92.7,5.99,10.01,
"CC(C)(Cc1csc([C@]2(C)C(=O)Nc3nc(-c4nn(CC5CCCCO5)c5ccccc45)nc(N)c32)n1)C(=O)O (single isomer, unassigned) [Example 229AA]",,6.11,9.30,114.6
"CC(C)(Cc1coc(C2(C)C(=O)Nc3nc(-c4nn(CC5CCCCO5)c5ccccc45)nc(N)c32)n1)C(=O)O (single isomer, unassigned) [Example 230AA, 3-{2-[4-amino-5-methyl-6-oxo-2-{1-[tetrahydro-2H-pyran-2-ylmethyl]-1H-indazol-3-yl}-6,7-dihydro-5H-pyrrolo[2,3-d]pyrimidin-5-yl]-1,3-oxazol-4-yl}-2,2-dimethyl-propanoic acid]",,6.09,9.73,
"CC1CCC(Cn2nc(-c3nc(N)c4c(n3)NC(=O)C4(C)c3nc(CC(C)(C)C(=O)O)co3)c3ccccc32)CC1 (single isomer, unassigned) [Example 231AB, 3-{2-[4-amino-5-methyl-2-{1-[4-methylcyclo-hexylmethyl]-1H-indazol-3-yl}-6-oxo-6,7-dihydro-5H-pyrrolo[2,3-d]pyrimidin-5-yl]-1,3-oxazol-4-yl}-2,2-dimethyl-propanoic acid]",,6.28,10.06,127.9
"CC(C)(Cc1csc([C@]2(C)C(=O)Nc3nc(-c4nn(Cc5ccccc5F)c5ccccc45)nc(N)c32)n1)c1nn[nH]n1 (single isomer, unassigned) [Example 236A]",110,6.32,9.80,
"C[C@@]1(c2ccc(CCc3nn[nH]n3)cc2)C(=O)Nc2nc(-c3nn(CCC(F)(F)C(F)(F)F)c4cc(Cl)ccc34)nc(N)c21 (single isomer, unassigned) [Example 237B]",93.3,5.23,9.71,
"CC1(c2ccc(CCc3nn[nH]n3)cn2)C(=O)Nc2nc(-c3nn(Cc4ccccc4F)c4ccccc34)nc(N)c21 (single isomer, unassigned) [Example 246A, 5-{5-[2-(2H-tetrazol-5-yl)ethyl]pyridin-2-yl}-4-amino-2-[1-(2-fluoro-benzyl)-1H-indazol-3-yl]-5-methyl-5,7-dihydro-6H-pyrrolo[2,3-d] pyrimidin-6-one]",,5.15,9.66,
"CC1(c2ccc(CCc3nn[nH]n3)cn2)C(=O)Nc2nc(-c3nn(Cc4ccccc4F)c4cc(Cl)ccc34)nc(N)c21 (single isomer, unassigned) [Example 247A, 5-{5-[2-(2H-tetrazol-5-yl)ethyl]pyridin-2-yl}-4-amino-2-[6-chloro-1-(2-fluorobenzyl)-1H-indazol-3-yl]-5-methyl-5,7-dihydro-6H-pyrrolo[2,3-d] pyrimidin-6-one]",,5.40,9.62,

# The next compounds have a higher pEC50 (sGC α1/β1 heterodimer) than those just listed; values first:
Emax (sGC α1/β1 heterodimer) [%],pEC50 (sGC α1/β1 heterodimer),pKi [1],% Activation (sGC α1/β1 heterodimer) [%],Structure (SMILES)
109,6.90,9.98,,"CC1CCC(Cn2nc(-c3nc(N)c4c(n3)NC(=O)C4(C)c3nc(CC(C)(C)C(=O)O)co3)c3ccc(Cl)cc32)CC1 (single isomer, unassigned) [Example 132AA, 3-{2-[4-amino-2-{6-chloro-1-[4-methylcyclohexylmethyl]-1H-indazol-3-yl}-5-methyl-6-oxo-6,7-dihydro-5H-pyrrolo[2,3-d]pyrimidin-5-yl]-1,3-oxazol-4-yl}-2,2-dimethylpropanoic acid]"
,7.05,10.13,109.2,"CC1CCC(Cn2nc(-c3nc(N)c4c(n3)NC(=O)C4(C)c3nc(CC(C)(C)C(=O)O)co3)c3ccc(Cl)cc32)CC1 (single isomer, unassigned) [Example 132AB, 3-{2-[4-amino-2-{6-chloro-1-[4-methylcyclohexylmethyl]-1H-indazol-3-yl}-5-methyl-6-oxo-6,7-dihydro-5H-pyrrolo[2,3-d]pyrimidin-5-yl]-1,3-oxazol-4-yl}-2,2-dimethylpropanoic acid]"
78.2,7.96,9.60,,"CC1CCC(Cn2nc(-c3nc(N)c4c(n3)NC(=O)[C@@]4(C)c3nc(CC(C)(C)C(=O)O)cs3)c3ccc(F)cc32)CC1 (single isomer, unassigned) [Example 136AA]"
,7.64,9.66,71.4,"CC1CCC(Cn2nc(-c3nc(N)c4c(n3)NC(=O)[C@@]4(C)c3nc(CC(C)(C)C(=O)O)cs3)c3ccc(F)cc32)CC1 (single isomer, unassigned) [Example 136AB]"
,6.71,9.18,,"CC1(c2cn(C(C)(C)C(=O)O)nn2)C(=O)Nc2nc(-c3nn(Cc4ccccc4F)c4cc(Cl)ccc34)nc(N)c21 (single isomer, unassigned) [Example 141A, 2-(4-{4-Amino-2-[6-chloro-1-(2-fluorobenzyl)-1H-indazol-3-yl]-5-methyl-6-oxo-6,7-dihydro-5H-pyrrolo[2,3-d]pyrimidin-5-yl}-1H-1,2,3-triazol-1-yl)-2-methylpropanoic acid]"
131,6.71,9.91,,"CC(C)(Cc1csc([C@]2(C)C(=O)Nc3nc(-c4nn(CC5CCCCC5)c5ncccc45)nc(N)c32)n1)C(=O)O (single isomer, unassigned) [Example 151A]"
119,6.84,9.93,,"CC(C)(Cc1csc([C@]2(C)C(=O)Nc3nc(-c4nn(CC5CCCC5)c5ncccc45)nc(N)c32)n1)C(=O)O (single isomer, unassigned) [Example 153A]"
116,6.49,9.57,,"Cc1ccc(F)c(Cn2nc(-c3nc(N)c4c(n3)NC(=O)[C@@]4(C)c3nc(CC(C)(C)C(=O)O)cs3)c3ccc(Cl)cc32)c1 (single isomer, unassigned) [Example 214A]"
92.1,6.82,9.79,,"C[C@@]1(c2ccc(CCC(=O)O)cc2)C(=O)Nc2nc(-c3nn(Cc4ccc(F)cc4)c4ccccc34)nc(N)c21 (single isomer, unassigned) [Example 221B]"
,6.75,9.62,72.9,"CC(C)(Cc1csc([C@]2(C)C(=O)Nc3nc(-c4nn(CC5CCCCO5)c5ccccc45)nc(N)c32)n1)C(=O)O (single isomer, unassigned) [Example 229AB]"
,6.95,10.04,148.2,"CC1CCC(Cn2nc(-c3nc(N)c4c(n3)NC(=O)C4(C)c3nc(CC(C)(C)C(=O)O)co3)c3ccccc32)CC1 (single isomer, unassigned) [Example 231AA, 3-{2-[4-amino-5-methyl-2-{1-[-4-methylcyclo-hexylmethyl]-1H-indazol-3-yl}-6-oxo-6,7-dihydro-5H-pyrrolo[2,3-d]pyrimidin-5-yl]-1,3-oxazol-4-yl}-2,2-dimethyl-propanoic acid]"
